Test results reported in the supplement of paper PMC13380429.

Experiments:
Details in all cases: 72 h
[1] = system: U2OS; test: cell viability relative to DMSO; higher = less toxic
[2] = system: Vero E6; test: as above
[3] = system: HepG2; test: as above
[4] = system: Calu-3; test: as above
[5] = system: Caco-2; test: as above
[6] = system: U2OS; test: drug sensitivity score (DSS) for viability; higher = more toxic; extreme values may be limits of the assay
[7] = system: Vero E6; test: as above
[8] = system: HepG2; test: as above
[9] = system: Calu-3; test: as above
[10] = system: Caco-2; test: as above
[11] = system: U2OS; test: relative viability EC50 (midpoint between 100% and the lowest measured viability); higher = less toxic
[12] = system: Vero E6; test: as above
[13] = system: HepG2; test: as above
[14] = system: Calu-3; test: as above
[15] = system: Caco-2; test: as above

| SMILES | cell viability ([1]; 1 nM) | cell viability ([1]; 10 nM) | cell viability ([1]; 100 nM) | cell viability ([1]; 1000 nM) | cell viability ([1]; 10000 nM) | cell viability ([2]; 1 nM) | cell viability ([2]; 10 nM) | cell viability ([2]; 100 nM) | cell viability ([2]; 1000 nM) | cell viability ([2]; 10000 nM) | cell viability ([3]; 1 nM) | cell viability ([3]; 10 nM) | cell viability ([3]; 100 nM) | cell viability ([3]; 1000 nM) | cell viability ([3]; 10000 nM) | cell viability ([4]; 1 nM) | cell viability ([4]; 10 nM) | cell viability ([4]; 100 nM) | cell viability ([4]; 1000 nM) | cell viability ([4]; 10000 nM) | cell viability ([5]; 1 nM) | cell viability ([5]; 10 nM) | cell viability ([5]; 100 nM) | cell viability ([5]; 1000 nM) | cell viability ([5]; 10000 nM) | drug sensitivity score [6] | drug sensitivity score [7] | drug sensitivity score [8] | drug sensitivity score [9] | drug sensitivity score [10] | relative viability EC50 [11] | relative viability EC50 [12] | relative viability EC50 [13] | relative viability EC50 [14] | relative viability EC50 [15] |
| --- | --- | --- | --- | --- | --- | --- | --- | --- | --- | --- | --- | --- | --- | --- | --- | --- | --- | --- | --- | --- | --- | --- | --- | --- | --- | --- | --- | --- | --- | --- | --- | --- | --- | --- | --- |
| C[C@H](N[C@@H](CCc1ccccc1)C(=O)O)C(=O)N1Cc2ccccc2C[C@H]1C(=O)O [quinaprilat] | 94.7% | 96.1% | 98.3% | 98.1% | 106% | 91.8% | 98.9% | 91.8% | 104% | 106% | 107% | 94.9% | 98.4% | 110% | 94.9% | 97.5% | 97.6% | 91.3% | 97% | 93.5% | 102% | 98.2% | 96.8% | 100% | 92.1% | 0 | 0 | 0 | 0 | 0 | > 10 µM | > 10 µM | > 10 µM | > 10 µM | > 10 µM |
| CN1CCc2cc(Cl)c(O)cc2[C@@H](c2ccccc2)C1 | 97.5% | 100% | 97.8% | 102% | 101% | 95.6% | 95% | 93.5% | 85.1% | 102% | 98.2% | 96.3% | 97.2% | 97.4% | 89.9% | 93.3% | 103% | 145% | 103% | 97.9% | 96.3% | 93.2% | 96.3% | 100% | 99.1% | 0 | 0 | 0 | 0 | 0 | > 10 µM | > 10 µM | > 10 µM | > 10 µM | > 10 µM |
| CC(=O)OCC(=O)[C@@]1(O)CC[C@H]2[C@@H]3CCC4=CC(=O)CC[C@]4(C)[C@H]3[C@@H](O)C[C@@]21C [hydrocortisone-acetate] | 94.6% | 97% | 93% | 97.7% | 98.6% | 95.7% | 99.4% | 96.2% | 95.4% | 101% | 101% | 105% | 105% | 99.5% | 103% | 93.8% | 102% | 97.9% | 96.8% | 89.2% | 92.6% | 94.4% | 106% | 97.6% | 107% | 0 | 0 | 0 | 0 | 0 | > 10 µM | > 10 µM | > 10 µM | > 10 µM | > 10 µM |
| CC(C)NCCCn1c(Sc2cc3c(cc2I)OCO3)nc2c(N)ncnc21 [PU-H71] | 94.4% | 97.5% | 95.6% | 37.8% | 3.8% | 102% | 105% | 105% | 92.8% | 33.2% | 101% | 95.3% | 82.8% | 0.3% | 0.4% | 97.7% | 107% | 100% | 55.3% | 41.1% | 89.9% | 104% | 106% | 74% | 47.1% | 12.9 | 4.9 | 20.8 | 8.5 | 6.2 | 0.686 µM | 2.27 µM | 0.186 µM | 0.634 µM | 1.02 µM |
| NC(=O)c1cccc(-c2cc(Nc3ccc(OC(F)(F)F)cc3)ncn2)c1 [GNF-2] | 103% | 99.2% | 99.1% | 102% | 103% | 104% | 99% | 94.6% | 106% | 102% | 108% | 99.6% | 93.4% | 96.4% | 77.3% | 104% | 103% | 97.9% | 90.3% | 86.6% | 102% | 102% | 104% | 87.1% | 83.7% | 0 | 0 | 1.3 | 0.5 | 1.3 | > 10 µM | > 10 µM | > 10 µM | > 10 µM | > 10 µM |
| CC(C)n1cnc2c(C(=O)N[C@H]3CN4CCC3CC4)cc(Cl)cc21 | 104% | 103% | 97.1% | 105% | 97.8% | 100% | 95.8% | 97.5% | 94.9% | 100% | 116% | 102% | 104% | 98.2% | 97.6% | 93.9% | 101% | 84.9% | 92.9% | 90.6% | 106% | 106% | 94.4% | 101% | 94.9% | 0 | 0 | 0 | 0 | 0 | > 10 µM | > 10 µM | > 10 µM | > 10 µM | > 10 µM |
| OC(c1ccccc1)(c1ccccc1)C1CCNCC1 [azacyclonol] | 102% | 99.2% | 98.5% | 102% | 97.1% | 105% | 100% | 102% | 99.9% | 99.9% | 116% | 91.6% | 101% | 97.8% | 93% | 88.6% | 99.5% | 90% | 97% | 101% | 93.6% | 102% | 97% | 102% | 93.6% | 0 | 0 | 0 | 0 | 0 | > 10 µM | > 10 µM | > 10 µM | > 10 µM | > 10 µM |
| C=CCNc1ncnc2ccc(Br)cc12 [SMER-28] | 101% | 97% | 102% | 96.9% | 101% | 93.6% | 98.3% | 95.8% | 99.8% | 101% | 92.3% | 98% | 102% | 102% | 78.8% | 101% | 103% | 96.1% | 100% | 82.7% | 99.5% | 93.4% | 98.7% | 103% | 91.2% | 0 | 0 | 0.6 | 0.4 | 0 | > 10 µM | > 10 µM | > 10 µM | > 10 µM | > 10 µM |
| O=C(O)[C@H]1CCCN(CCC=C(c2ccccc2)c2ccccc2)C1 (racemic) | 98.6% | 98.2% | 98.1% | 102% | 91.3% | 99.6% | 100% | 101% | 102% | 103% | 107% | 94.5% | 83.9% | 108% | 99.2% | 96.8% | 98.5% | 111% | 90.9% | 111% | 95.9% | 98.7% | 102% | 95.7% | 94.9% | 0 | 0 | 0 | 0 | 0 | > 10 µM | > 10 µM | > 10 µM | > 10 µM | > 10 µM |
| O=C1OC(CN2CCOCC2)CN1/N=C/c1ccc([N+](=O)[O-])o1 (stereo not given) [furaltadone] | 99.8% | 99.3% | 95.4% | 106% | 95.1% | 108% | 94% | 103% | 109% | 102% | 96.4% | 93.3% | 92.8% | 81.7% | 82.5% | 95.7% | 93.6% | 94.4% | 103% | 104% | 96.5% | 87% | 79.7% | 99.8% | 82.3% | 0 | 0 | 2.1 | 0 | 0 | > 10 µM | > 10 µM | > 10 µM | > 10 µM | > 10 µM |
| C[C@]12CC[C@H](O)C[C@H]1CC[C@@H]1[C@@H]2CC[C@]2(C)[C@@H](C3=CC(=O)OC3)CC[C@]12O [digitoxigenin] | 105% | 105% | 101% | 16.4% | 6.9% | 108% | 97.3% | 13.2% | 0.7% | 0.6% | 118% | 117% | 94.5% | 39.2% | 12.2% | 97.7% | 93.4% | 104% | 50.5% | 17.7% | 78.9% | 84.9% | 84.1% | 36% | 42.3% | 15.2 | 28.4 | 12.4 | 10.5 | 13.5 | 0.435 µM | 0.0448 µM | 0.605 µM | 0.849 µM | 0.18 µM |
| CC[C@@H]1C(=O)N(C)c2cnc(Nc3ccc(C(=O)N[C@H]4CC[C@H](N5CCN(CC6CC6)CC5)CC4)cc3OC)nc2N1C(C)C [volasertib] | 99% | 99.4% | 87.2% | 29.1% | 18.7% | 101% | 98% | 90.6% | 18.3% | 1.5% | 106% | 104% | 42.7% | 17.6% | 9.1% | 112% | 86.8% | 91.3% | 83.3% | 22.1% | 104% | 93.2% | 74% | 57.8% | 26.7% | 14.7 | 16.3 | 23.2 | 7 | 11.5 | 0.293 µM | 0.386 µM | 0.081 µM | 1.67 µM | 0.36 µM |
| COc1cc2cc(c1Cl)N(C)C(=O)C[C@H](OC(=O)C(C)C)[C@]1(C)O[C@@H]1[C@H](C)[C@@H]1C[C@@](O)(NC(=O)O1)[C@H](OC)/C=C/C=C(\C)C2 [ansamitocin-p-3] | 39.6% | 29.1% | 19.9% | 17.9% | 16.3% | 72.1% | 32.5% | 29.8% | 21.2% | 18.4% | 39% | 32.4% | 38% | 33.8% | 30.9% | 62.6% | 53.6% | 36.7% | 37.4% | 37.8% | 45% | 47.9% | 39% | 40.9% | 35.1% | 37.6 | 35 | 33.8 | 27.7 | 28.4 | < 0.001 µM | 0.0021 µM | < 0.001 µM | < 0.001 µM | < 0.001 µM |
